Test results reported in US20190351069A1, “Coating of Nanoparticle Surfaces with Cyclopeptides for Improving Delivery of Agents Via the Oral Route” (Ruprecht-Karls-Universität Heidelberg, priority 2016, published 2019).
Where a SMILES comes first, the peptide text is derived from it.

Experiment: Stability of cell-penetrating peptides in simulated gastric and intestinal fluid (HPLC/MS)
Type: in vitro ADME
Description: Both CPPs (1 mg/mL in water) were diluted 1:1 (v/v) with either simulated gastric fluid or simulated intestinal fluid and incubated at 37° C. under constant shaking as described in the art. After 0, 15, 30 and 60 min, the samples were analyzed by HPLC/MS in order to detect the recovery of intact CPP and were compared in relation with the initial solution. • Cytotoxicity Assays • Cell Cultivation

With `N=C(N)NCCC[C@@H]1NC(=O)[C@H](CS)NC(=O)[C@H](CCCNC(=N)N)NC(=O)[C@H](CCCNC(=N)N)NC(=O)[C@H](CCCNC(=N)N)NC(=O)[C@H](CCCNC(=N)N)NC(=O)[C@H](CCCNC(=N)N)NC(=O)[C@H](CCCNC(=N)N)NC(=O)[C@H](CCCNC(=N)N)NC(=O)[C@H](CCCNC(=N)N)NC1=O` [cyclic CPP] (cyclo(RRRRRRRRRC); ring closure inferred) the “stability in intestinal fluid” value (over one hour) was “only a moderate loss”, the “stability in simulated gastric fluid” value (over one hour) was “high stability” and the remaining at 1 h, 0.5 mg/mL (simulated intestinal fluid, after one hour, 37° C., read-out: intact CPP) was 47.3%.
